According to ChEMBL document CHEMBL3132769, “Fragment growing to retain or alter the selectivity of anchored kinase hinge-binding fragments” (Medchemcomm, 2014):

Tests used:
[1] = target: Tyrosine-protein kinase ABL2 (Homo sapiens) (UniProt P42684); experiment: Inhibition of human truncated Arg expressed in baculovirus assessed as substrate phosphorylation using fluorescence-labelled peptides as substrate at 0.06 uM after 90 mins by microfluidic peptide phosphorylation assay
[2] = target: Serine/threonine-protein kinase MARK2 (Homo sapiens) (UniProt Q7KZI7); experiment: Inhibition of human full length MARK2 expressed in baculovirus assessed as substrate phosphorylation using fluorescence-labelled peptides as substrate at 0.2 uM after 90 mins by microfluidic peptide phosphorylation assay
[3] = tested on: Fibroblast growth factor receptor 2 (Homo sapiens), P21802 [N549H]; experiment: Inhibition of human FGFR2 N549H mutant catalytic domain expressed in baculovirus assessed as substrate phosphorylation using fluorescence-labelled peptides as substrate at 2 uM after 90 mins by microfluidic peptide phosphorylation assay
Sequence of Fibroblast growth factor receptor 2 (Homo sapiens), P21802 [N549H] (P21802 whole entry N549H, the tested form may be a part): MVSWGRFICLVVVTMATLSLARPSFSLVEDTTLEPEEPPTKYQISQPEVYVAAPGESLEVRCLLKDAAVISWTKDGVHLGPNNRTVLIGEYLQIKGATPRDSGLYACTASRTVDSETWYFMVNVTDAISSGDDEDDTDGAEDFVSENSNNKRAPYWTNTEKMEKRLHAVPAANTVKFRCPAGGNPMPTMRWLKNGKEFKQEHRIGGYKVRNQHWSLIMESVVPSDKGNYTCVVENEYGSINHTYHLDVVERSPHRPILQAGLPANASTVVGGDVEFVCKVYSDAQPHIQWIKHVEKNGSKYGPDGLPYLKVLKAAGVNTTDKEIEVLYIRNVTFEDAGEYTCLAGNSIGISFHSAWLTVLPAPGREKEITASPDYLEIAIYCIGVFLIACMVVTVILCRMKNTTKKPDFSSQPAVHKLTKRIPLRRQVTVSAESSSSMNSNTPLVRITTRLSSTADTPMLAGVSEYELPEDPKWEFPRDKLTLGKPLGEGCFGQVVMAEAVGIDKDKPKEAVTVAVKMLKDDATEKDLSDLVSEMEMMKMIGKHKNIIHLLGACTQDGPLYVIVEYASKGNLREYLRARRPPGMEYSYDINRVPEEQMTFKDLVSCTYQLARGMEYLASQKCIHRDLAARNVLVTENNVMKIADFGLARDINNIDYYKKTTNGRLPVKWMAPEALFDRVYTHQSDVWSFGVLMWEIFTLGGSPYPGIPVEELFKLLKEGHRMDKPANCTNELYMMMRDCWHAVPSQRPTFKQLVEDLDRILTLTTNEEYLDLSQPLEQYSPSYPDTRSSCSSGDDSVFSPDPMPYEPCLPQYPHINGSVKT

[4] = target: Rho-associated protein kinase 2 (Homo sapiens) (UniProt O75116); experiment: Inhibition of human ROCK2 catalytic domain expressed in baculovirus assessed as substrate phosphorylation using fluorescence-labelled peptides as substrate at 2 uM after 90 mins by microfluidic peptide phosphorylation assay
[5] = target: Calcium/calmodulin-dependent protein kinase type II subunit gamma (Homo sapiens) (UniProt Q13555); experiment: Inhibition of human CAMK2 gamma catalytic domain expressed in baculovirus assessed as substrate phosphorylation using fluorescence-labelled peptides as substrate at 2 uM after 90 mins by microfluidic peptide phosphorylation assay
[6] = target: Tyrosine-protein kinase Lck (Homo sapiens) (UniProt P06239); experiment: Inhibition of human full length LCK expressed in baculovirus assessed as substrate phosphorylation using fluorescence-labelled peptides as substrate at […] after 90 mins by microfluidic peptide phosphorylation assay
Sequence of Tyrosine-protein kinase Lck (Homo sapiens) (P06239 2-509 limits assumed): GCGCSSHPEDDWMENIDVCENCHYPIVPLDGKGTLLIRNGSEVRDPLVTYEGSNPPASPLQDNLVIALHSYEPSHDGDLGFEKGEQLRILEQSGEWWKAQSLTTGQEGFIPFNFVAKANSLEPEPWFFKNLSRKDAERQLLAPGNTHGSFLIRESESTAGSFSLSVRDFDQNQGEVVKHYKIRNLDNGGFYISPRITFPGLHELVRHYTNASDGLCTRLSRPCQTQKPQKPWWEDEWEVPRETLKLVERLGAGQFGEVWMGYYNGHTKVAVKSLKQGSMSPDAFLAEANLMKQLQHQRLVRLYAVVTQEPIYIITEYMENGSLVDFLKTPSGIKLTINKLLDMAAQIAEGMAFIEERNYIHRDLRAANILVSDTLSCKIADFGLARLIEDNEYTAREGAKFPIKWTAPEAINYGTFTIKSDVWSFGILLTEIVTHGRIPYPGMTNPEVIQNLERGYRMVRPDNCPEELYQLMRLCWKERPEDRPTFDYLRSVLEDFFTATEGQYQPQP

[7] = target: T1, Calcium/calmodulin-dependent protein kinase type IV (Homo sapiens) (UniProt Q16566); experiment: Inhibition of human full length CAMK4 expressed in baculovirus assessed as substrate phosphorylation using fluorescence-labelled peptides as substrate at 9 uM after 90 mins by microfluidic peptide phosphorylation assay
T1 sequence (whole entry): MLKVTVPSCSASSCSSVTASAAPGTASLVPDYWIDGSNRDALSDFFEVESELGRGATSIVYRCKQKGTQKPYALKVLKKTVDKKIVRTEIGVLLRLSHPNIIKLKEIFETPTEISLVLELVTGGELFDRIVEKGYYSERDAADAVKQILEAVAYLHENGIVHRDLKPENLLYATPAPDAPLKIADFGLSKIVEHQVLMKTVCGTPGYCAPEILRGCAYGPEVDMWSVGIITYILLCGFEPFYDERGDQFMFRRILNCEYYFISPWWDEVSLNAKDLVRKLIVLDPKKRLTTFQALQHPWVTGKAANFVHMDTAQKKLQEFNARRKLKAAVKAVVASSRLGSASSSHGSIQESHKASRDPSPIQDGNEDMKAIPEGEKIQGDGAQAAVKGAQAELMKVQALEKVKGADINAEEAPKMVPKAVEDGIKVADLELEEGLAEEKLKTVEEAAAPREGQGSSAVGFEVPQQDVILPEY

[8] = target: T2, Interleukin-1 receptor-associated kinase 4 (Homo sapiens) (UniProt Q9NWZ3); experiment: Inhibition of human IRAK4 catalytic domain expressed in baculovirus assessed as substrate phosphorylation using fluorescence-labelled peptides as substrate at 0.1 uM after 90 mins by microfluidic peptide phosphorylation assay
T2 sequence (whole entry): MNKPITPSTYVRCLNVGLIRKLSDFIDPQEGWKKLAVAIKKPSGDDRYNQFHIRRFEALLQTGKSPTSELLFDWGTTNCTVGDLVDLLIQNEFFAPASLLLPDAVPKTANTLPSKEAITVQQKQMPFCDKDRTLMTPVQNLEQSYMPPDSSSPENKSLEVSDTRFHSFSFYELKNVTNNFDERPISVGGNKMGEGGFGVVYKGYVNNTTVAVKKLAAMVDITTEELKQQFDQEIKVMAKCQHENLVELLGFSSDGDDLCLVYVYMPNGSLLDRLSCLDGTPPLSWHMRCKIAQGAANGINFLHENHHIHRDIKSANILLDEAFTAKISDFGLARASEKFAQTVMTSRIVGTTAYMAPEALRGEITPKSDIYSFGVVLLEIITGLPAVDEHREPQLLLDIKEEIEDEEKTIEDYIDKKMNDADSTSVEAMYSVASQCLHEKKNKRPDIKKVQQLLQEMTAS

[9] = target: Tyrosine-protein kinase HCK (Homo sapiens) (UniProt P08631); experiment: Inhibition of human HCK catalytic domain expressed in baculovirus assessed as substrate phosphorylation using fluorescence-labelled peptides as substrate at 0.1 uM after 90 mins by microfluidic peptide phosphorylation assay
[10] = target: Tyrosine-protein kinase Lyn (Homo sapiens) (UniProt P07948); experiment: Inhibition of human full length LYN expressed in baculovirus assessed as substrate phosphorylation using fluorescence-labelled peptides as substrate at 95 uM after 90 mins by microfluidic peptide phosphorylation assay
Sequence of Tyrosine-protein kinase Lyn (Homo sapiens) (P07948 2-512 limits assumed): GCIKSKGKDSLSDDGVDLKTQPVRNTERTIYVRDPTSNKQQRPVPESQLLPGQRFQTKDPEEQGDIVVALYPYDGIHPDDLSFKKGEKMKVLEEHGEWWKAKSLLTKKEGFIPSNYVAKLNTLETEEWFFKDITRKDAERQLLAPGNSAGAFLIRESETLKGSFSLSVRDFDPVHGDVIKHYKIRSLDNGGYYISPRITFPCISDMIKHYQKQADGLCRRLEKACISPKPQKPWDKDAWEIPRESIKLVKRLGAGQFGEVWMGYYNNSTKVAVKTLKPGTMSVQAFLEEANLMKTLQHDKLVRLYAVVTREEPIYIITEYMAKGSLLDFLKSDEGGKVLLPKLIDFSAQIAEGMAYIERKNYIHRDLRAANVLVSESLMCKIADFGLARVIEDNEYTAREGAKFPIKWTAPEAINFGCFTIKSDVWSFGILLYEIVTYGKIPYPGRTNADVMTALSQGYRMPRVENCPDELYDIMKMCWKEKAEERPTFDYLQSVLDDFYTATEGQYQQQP

[11] = target: Protein kinase C eta type (Homo sapiens) (UniProt P24723); experiment: Inhibition of human truncated PKC eta expressed in baculovirus assessed as substrate phosphorylation using fluorescence-labelled peptides as substrate at 95 uM after 90 mins by microfluidic peptide phosphorylation assay
[12] = target: Ribosomal protein S6 kinase alpha-3 (Homo sapiens) (UniProt P51812); experiment: Inhibition of human full length RSK2 expressed in baculovirus assessed as substrate phosphorylation using fluorescence-labelled peptides as substrate at 95 uM after 90 mins by microfluidic peptide phosphorylation assay
Sequence of Ribosomal protein S6 kinase alpha-3 (Homo sapiens) (P51812 whole entry): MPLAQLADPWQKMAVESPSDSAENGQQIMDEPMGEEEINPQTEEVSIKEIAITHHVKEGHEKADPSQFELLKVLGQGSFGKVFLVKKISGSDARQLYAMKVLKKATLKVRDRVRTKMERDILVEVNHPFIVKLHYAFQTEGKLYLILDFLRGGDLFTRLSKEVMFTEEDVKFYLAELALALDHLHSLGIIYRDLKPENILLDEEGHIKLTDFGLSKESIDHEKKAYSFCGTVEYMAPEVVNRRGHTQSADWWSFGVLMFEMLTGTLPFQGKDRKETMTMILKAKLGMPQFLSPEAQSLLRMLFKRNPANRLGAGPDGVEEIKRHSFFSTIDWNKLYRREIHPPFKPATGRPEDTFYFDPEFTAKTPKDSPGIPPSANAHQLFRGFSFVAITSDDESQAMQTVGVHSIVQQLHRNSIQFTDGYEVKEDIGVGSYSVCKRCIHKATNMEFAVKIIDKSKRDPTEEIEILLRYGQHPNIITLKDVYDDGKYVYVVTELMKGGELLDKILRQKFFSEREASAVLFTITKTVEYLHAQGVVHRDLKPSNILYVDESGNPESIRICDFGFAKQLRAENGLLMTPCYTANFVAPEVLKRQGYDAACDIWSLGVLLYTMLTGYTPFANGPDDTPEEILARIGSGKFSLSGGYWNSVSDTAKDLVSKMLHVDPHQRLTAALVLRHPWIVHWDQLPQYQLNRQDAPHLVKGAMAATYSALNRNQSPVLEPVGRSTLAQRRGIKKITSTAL

[13] = target: Ribosomal protein S6 kinase alpha-1 (Homo sapiens) (UniProt Q15418); experiment: Inhibition of human full length RSK1 expressed in baculovirus assessed as substrate phosphorylation using fluorescence-labelled peptides as substrate at 95 uM after 90 mins by microfluidic peptide phosphorylation assay
Sequence of Ribosomal protein S6 kinase alpha-1 (Homo sapiens) (Q15418 whole entry, the tested form may be a part): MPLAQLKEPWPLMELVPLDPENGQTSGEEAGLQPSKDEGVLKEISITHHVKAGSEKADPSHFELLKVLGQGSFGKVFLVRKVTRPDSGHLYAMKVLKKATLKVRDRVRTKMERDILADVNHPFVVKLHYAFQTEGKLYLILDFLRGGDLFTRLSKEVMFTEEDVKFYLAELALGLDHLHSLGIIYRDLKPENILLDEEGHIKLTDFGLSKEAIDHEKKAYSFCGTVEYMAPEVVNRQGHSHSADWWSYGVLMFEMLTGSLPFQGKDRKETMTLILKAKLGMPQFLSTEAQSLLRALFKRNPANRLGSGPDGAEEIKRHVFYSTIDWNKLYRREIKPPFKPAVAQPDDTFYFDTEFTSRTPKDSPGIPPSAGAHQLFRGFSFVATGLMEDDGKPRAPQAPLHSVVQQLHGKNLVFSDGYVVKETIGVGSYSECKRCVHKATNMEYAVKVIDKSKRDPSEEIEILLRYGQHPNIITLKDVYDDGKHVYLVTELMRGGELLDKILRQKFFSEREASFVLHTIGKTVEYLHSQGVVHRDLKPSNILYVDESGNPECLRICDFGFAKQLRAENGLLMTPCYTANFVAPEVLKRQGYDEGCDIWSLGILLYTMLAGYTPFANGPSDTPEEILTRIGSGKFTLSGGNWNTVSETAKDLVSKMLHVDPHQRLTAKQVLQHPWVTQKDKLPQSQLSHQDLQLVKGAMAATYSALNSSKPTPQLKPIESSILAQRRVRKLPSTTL

[14] = target: Protein kinase C theta type (Homo sapiens) (UniProt Q04759); experiment: Inhibition of human truncated PKC theta expressed in baculovirus assessed as substrate phosphorylation using fluorescence-labelled peptides as substrate at 1000 uM after 90 mins by microfluidic peptide phosphorylation assay
Sequence of Protein kinase C theta type (Homo sapiens) (Q04759 whole entry, looked up, the tested form may be a part): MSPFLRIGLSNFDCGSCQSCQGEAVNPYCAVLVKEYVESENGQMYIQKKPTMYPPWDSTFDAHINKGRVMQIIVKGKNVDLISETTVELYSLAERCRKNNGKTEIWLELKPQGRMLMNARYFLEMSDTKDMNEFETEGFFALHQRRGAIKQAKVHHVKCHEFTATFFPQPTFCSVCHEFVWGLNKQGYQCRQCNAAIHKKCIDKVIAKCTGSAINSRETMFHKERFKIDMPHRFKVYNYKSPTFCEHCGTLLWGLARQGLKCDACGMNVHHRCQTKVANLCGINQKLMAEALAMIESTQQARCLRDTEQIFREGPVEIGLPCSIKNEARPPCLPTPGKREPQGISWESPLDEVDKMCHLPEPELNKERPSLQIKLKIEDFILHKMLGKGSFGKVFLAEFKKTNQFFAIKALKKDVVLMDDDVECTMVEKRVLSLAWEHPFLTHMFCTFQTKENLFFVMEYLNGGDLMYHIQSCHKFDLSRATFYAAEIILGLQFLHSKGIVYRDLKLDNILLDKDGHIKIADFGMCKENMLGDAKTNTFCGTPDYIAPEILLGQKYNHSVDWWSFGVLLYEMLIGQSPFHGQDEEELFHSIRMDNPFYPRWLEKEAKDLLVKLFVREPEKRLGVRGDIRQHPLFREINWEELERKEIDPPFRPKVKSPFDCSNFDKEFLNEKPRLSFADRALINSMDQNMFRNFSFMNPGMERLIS

[15] = target: Calcium/calmodulin-dependent protein kinase type II subunit delta (Homo sapiens) (UniProt Q13557); experiment: Inhibition of human full length CAMK2D expressed in baculovirus assessed as substrate phosphorylation using fluorescence-labelled peptides as substrate at 1000 uM after 90 mins by microfluidic peptide phosphorylation assay
[16] = target: RAC-alpha serine/threonine-protein kinase (Homo sapiens) (UniProt P31749); settings: 1000 uM
Sequence of RAC-alpha serine/threonine-protein kinase (Homo sapiens) (P31749 whole entry): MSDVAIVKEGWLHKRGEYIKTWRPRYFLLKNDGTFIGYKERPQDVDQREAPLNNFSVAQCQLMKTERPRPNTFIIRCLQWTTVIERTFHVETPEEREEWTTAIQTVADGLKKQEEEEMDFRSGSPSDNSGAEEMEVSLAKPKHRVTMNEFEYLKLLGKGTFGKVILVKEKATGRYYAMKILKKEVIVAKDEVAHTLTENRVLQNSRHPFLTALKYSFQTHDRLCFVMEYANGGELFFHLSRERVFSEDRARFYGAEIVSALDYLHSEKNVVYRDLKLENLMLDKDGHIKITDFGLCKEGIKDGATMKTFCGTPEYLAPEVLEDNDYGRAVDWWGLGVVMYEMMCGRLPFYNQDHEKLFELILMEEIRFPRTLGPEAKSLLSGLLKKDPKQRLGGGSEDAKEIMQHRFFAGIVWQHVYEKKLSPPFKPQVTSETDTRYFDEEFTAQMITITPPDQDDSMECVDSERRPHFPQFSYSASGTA
Description: Inhibition of human AKT1 catalytic domain expressed in baculovirus assessed as substrate phosphorylation using fluorescence-labelled peptides as substrate at 1000 uM after 90 mins by microfluidic peptide phosphorylation assay

[17] = target: Tyrosine-protein kinase Lck (Homo sapiens) (UniProt P06239); experiment: Inhibition of human full length LCK expressed in baculovirus assessed as substrate phosphorylation using fluorescence-labelled peptides as substrate at 1000 uM after 90 mins by microfluidic peptide phosphorylation assay
[18] = target: Receptor-type tyrosine-protein kinase FLT3 (Homo sapiens) (UniProt P36888); experiment: Inhibition of human FLT3 catalytic domain expressed in baculovirus assessed as substrate phosphorylation using fluorescence-labelled peptides as substrate at 70 uM after 90 mins by microfluidic peptide phosphorylation assay
[19] = target: MAP kinase-activated protein kinase 2 (Homo sapiens) (UniProt P49137); experiment: Inhibition of human full length MAPKAPK2 expressed in baculovirus assessed as substrate phosphorylation using fluorescence-labelled peptides as substrate at 70 uM after 90 mins by microfluidic peptide phosphorylation assay
Sequence of MAP kinase-activated protein kinase 2 (Homo sapiens) (P49137 whole entry, looked up): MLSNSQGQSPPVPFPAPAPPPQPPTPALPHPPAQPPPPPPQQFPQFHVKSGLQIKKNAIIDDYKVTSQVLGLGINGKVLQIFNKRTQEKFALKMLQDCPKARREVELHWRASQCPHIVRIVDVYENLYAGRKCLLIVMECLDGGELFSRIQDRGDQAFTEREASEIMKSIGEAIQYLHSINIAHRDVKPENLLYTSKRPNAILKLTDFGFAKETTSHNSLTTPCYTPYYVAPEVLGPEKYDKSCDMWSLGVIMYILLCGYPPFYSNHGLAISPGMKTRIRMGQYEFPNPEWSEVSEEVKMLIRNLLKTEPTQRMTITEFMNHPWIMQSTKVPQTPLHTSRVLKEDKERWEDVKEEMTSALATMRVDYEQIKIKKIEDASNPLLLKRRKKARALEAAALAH

Compound `NC1(Cc2ccc(Cl)cc2)CCN(c2ncnc3[nH]ccc23)CC1` has an inhibition [1] of 5%.

`Clc1ccc(C2(c3ccc(-c4ncnc5[nH]cnc45)cc3)CCNCC2)cc1` showed an inhibition [2] of 41.5%.

Work on `NC1CCN(c2ncnc3[nH]ccc23)CC1` yielded an inhibition [3] of 1%, an inhibition [4] of 44% and an inhibition [5] of 0%.

Work on `COC(=O)c1cnc(Nc2cnc(C#N)cn2)cc1NCC1CCNCC1` yielded an inhibition [6] of 5.5%.

Work on `NCC1CN(c2ncnc3[nH]c4cnccc4c23)CCO1` (centres undefined) yielded an inhibition [7] of 31.5%.

In the case of `C[C@H](CN(C)C)Oc1nc(Nc2cc3cccc(Cl)c3cn2)cnc1C#N`, the inhibition [8] is reported as 11.5% and the inhibition [9] is reported as 4%.

For `NCCc1ccc(-c2ncnc3[nH]cnc23)cc1`, the inhibition [10] was 65.5%, the inhibition [11] was 86.5% and the inhibition [12] was 87.5%. The inhibition [13] was 83.5%.

`c1cnc2[nH]ccc2c1` gave an inhibition [14] of 29%, an inhibition [15] of 37.5% and an inhibition [16] of 65.5%. The inhibition [17] was 29%.

`CNCc1ccc(-c2ncnc3[nH]cnc23)cc1` was tested, and the inhibition [18] was 36% and the inhibition [19] was 77%.
